Reference: the NIST ThermoML archive (doi:10.1016/j.jct.2018.02.014)

Tests used:
[1] = 101.33 kPa, Liquid; for viscosity: Falling or rolling sphere viscometry; for mass density: Vibrating tube method
[2] = activity coefficient (dimensionless); of the first substance listed, at infinite dilution; xn = mol fraction of the nth substance listed; details: 101.33 kPa, Liquid, Chromatography, x1 = 0

CC[N+]1(C)CCOCC1.N#CN=C=[N-] [N-ethyl-N-methylmorpholinium dicyanamide]
[1]
Details | mass density [kg/m3] | viscosity [mPa·s]
298.15 K | 1123.2 | 176
303.15 K | 1120.2 | –
308.15 K | 1117.2 | 106
313.15 K | 1114.2 | –
318.15 K | 1111.3 | 68.3
323.15 K | 1108.4 | –
328.15 K | 1105.4 | 47.4
333.15 K | 1102.5 | –
338.15 K | 1099.7 | 33.7
343.15 K | 1096.8 | –
348.15 K | 1093.9 | 24.8
353.15 K | 1091.1 | –
358.15 K | 1088.3 | 19.2
363.15 K | 1085.5 | –
368.15 K | 1082.7 | 15.6

CC(C)O [propan-2-ol] + CC[N+]1(C)CCOCC1.N#CN=C=[N-]
[2]
Details | activity coefficient
318.15 K | 2.02
328.15 K | 2
338.15 K | 1.99
348.15 K | 1.97
358.15 K | 1.96
368.15 K | 1.95

c1ccsc1 [thiophene] + CC[N+]1(C)CCOCC1.N#CN=C=[N-]
[2]
Details | activity coefficient
318.15 K | 2.24
328.15 K | 2.36
338.15 K | 2.48
348.15 K | 2.59
358.15 K | 2.71
368.15 K | 2.82

CC(C)OC(C)C [diisopropyl ether] + CC[N+]1(C)CCOCC1.N#CN=C=[N-]
[2]
Details | activity coefficient
328.15 K | 123
338.15 K | 125
348.15 K | 127
358.15 K | 128
368.15 K | 130

Cc1cccc(C)c1 [1,3-dimethylbenzene] + CC[N+]1(C)CCOCC1.N#CN=C=[N-]
[2]
Details | activity coefficient
318.15 K | 13.8
328.15 K | 14.1
338.15 K | 14.4
348.15 K | 14.7
358.15 K | 14.9
368.15 K | 15.2

CC(C)c1ccccc1 [isopropylbenzene] + CC[N+]1(C)CCOCC1.N#CN=C=[N-]
[2]
Details | activity coefficient
318.15 K | 27
328.15 K | 26.9
338.15 K | 26.9
348.15 K | 26.9
358.15 K | 26.9
368.15 K | 26.9

CCC(C)O (configuration not stated) [butan-2-ol] + CC[N+]1(C)CCOCC1.N#CN=C=[N-]
[2]
Details | activity coefficient
318.15 K | 2.98
328.15 K | 2.94
338.15 K | 2.9
348.15 K | 2.86
358.15 K | 2.83
368.15 K | 2.81

C=CCCCC [hex-1-ene] + CC[N+]1(C)CCOCC1.N#CN=C=[N-]
[2]
Details | activity coefficient
298.15 K | 193
308.15 K | 177
318.15 K | 163
328.15 K | 152
338.15 K | 141

CC(C)(C)O [2-methylpropan-2-ol] + CC[N+]1(C)CCOCC1.N#CN=C=[N-]
[2]
Details | activity coefficient
318.15 K | 2.77
328.15 K | 2.78
338.15 K | 2.8
348.15 K | 2.82
358.15 K | 2.83
368.15 K | 2.85

CCCC=O [butanal] + CC[N+]1(C)CCOCC1.N#CN=C=[N-]
[2]
Details | activity coefficient
318.15 K | 3.51
328.15 K | 3.65
338.15 K | 3.79
348.15 K | 3.92
358.15 K | 4.04
368.15 K | 4.17

C1COCCO1 [1,4-dioxane] + CC[N+]1(C)CCOCC1.N#CN=C=[N-]
[2]
Details | activity coefficient
318.15 K | 1.57
328.15 K | 1.69
338.15 K | 1.82
348.15 K | 1.94
358.15 K | 2.06
368.15 K | 2.19

CC(C)=O [acetone] + CC[N+]1(C)CCOCC1.N#CN=C=[N-]
[2]
Details | activity coefficient
318.15 K | 1.61
328.15 K | 1.7
338.15 K | 1.8
348.15 K | 1.9
358.15 K | 1.99
368.15 K | 2.09
